In brackets after ≈: the same amount, converted by molar mass. Several values for one entry are separate records, joined by “and”; a condition that tells them apart may be missing. Identical values can stand only once.
Tests used:
WT mPIEZO1 = biological target: T1, WT mPIEZO1 (Mus musculus, UniProt E2JF22); assay: Long substance exposure and hypo-osmolality protocol Ca2+ assay; assay type: cell-based; details: 10 μM, 20-min exposure, hypotonic assay
T1 construct: expressed in transfected cells
Protocol: For intracellular Ca^2+ assays, cells were plated at 80–90% confluence in 96-well plates 24 h prior to recordings (6–8 × 10^4 cells per well). […] Cells were washed with SBS and incubated at room temperature for 20 min prior to recordings. Equal volumes of 2x concentrated compounds were injected to test for acute channel activation. Pre-incubation with compounds occurred during the 20 min prior to recordings. To expose cell membranes to hypo-osmolality, an equal volume of hypotonic SBS (containing only 35 mM NaCl) was injected onto the cells. Measurements were made on a fluorescence plate reader (Flexstation III, Molecular Devices) at room temperature (21 ± 2°C). Fura-2 was excited at 340 nm and 380 nm and emitted light collected at 510 nm, with measurements shown as the change in fluorescence (F) ratio (ΔF340/380).
SI Figure S5: Hypo-osm ol al it y test in the Ca2+ assay, referred to in the main paper
(a) Typical 96-well plate mean ± s.e.m. data for changes in intracellular Ca2+ evoked by hypotonic (35 mM NaCl) or normotonic (135 mM NaCl) medium for WT- or Empty vector-transfected cells in increasing concentrations of Yoda1 as indicated and colour -coded on t he right (representative of n = 3-6 independent experiments). […]

[1] = Aqueous (kinetic) solubility; assay type: physicochemical; details: pH 7.4, aqueous buffer, kinetic from dmso stock; physiological pH in PBS
Protocol: (§1) Aqueous solubility, mouse microsomal stability and mouse plasma protein binding assays were performed by Malvern Panalytical (UK) as previously described.[29]

[2] = Mouse microsomal stability; assay type: in vitro ADME; details: mouse microsomes
Protocol: as §1

[3] = Mouse plasma protein binding; assay type: in vitro ADME
Protocol: as §1

G1994D mPIEZO1 [4] = biological target: T2, G1994D mPIEZO1 (Mus musculus, UniProt E2JF22, G1994D); assay: Outside-out patch recording with pressure pulses; assay type: cell-based; details: for Currents at given pressure / Pressure-response, individual cells (Figure 5f) / Mean (pressure-response, Figure 5f): G1994D + Yoda1; for Pressure-response, individual cells (Figure 5f): cell1-cell10; for Mean (pressure-response, Figure 5f): mean of cells 1-10;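 on Mean (pressure-response, Figure 5f): peak current normalised to each patch's maximum peak current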;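 on Pressure-response, individual cells (Figure 5f): peak current normalised to each patch's maximum peak current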
T2 construct: expressed in transfected cells
Protocol: (§2) Ionic currents were recorded through outside-out patches from cells using standard patch-clamp techniques in voltage-clamp mode. Patch pipettes were fire-polished and had resistance of 4–7 MΩ when filled with pipette solution. Ionic solution of composition (mM) NaCl 140, HEPES 10 and EGTA 5 (titrated to pH 7.4 using NaOH) was used in both the pipette and bath. Recordings were at a constant holding potential of −80 mV. 200-ms pressure steps were applied to the patch pipette with an interval of 12 s using High Speed Pressure Clamp HSPC-1 System (ALA Scientific Instruments, USA). All recordings were made with an Axopatch-200B amplifier (Axon Instruments, Inc., USA) equipped with Digidata 1550B and pClamp (v10.6) software (Molecular Devices, USA) at room temperature (21 ± 2°C). Currents were filtered at 2–5 kHz and digitally sampled at 5–20 kHz.

I2286T mPIEZO1 = biological target: T3, I2286T mPIEZO1 (Mus musculus, UniProt E2JF22, I2286T); assay: Outside-out patch recording with pressure pulses; assay type: cell-based; details: 5 μM; for current (example trace): 75 mmHg pulses
T3 construct: expressed in transfected cells
Protocol: as §2

R2351Q mPIEZO1 = biological target: T4, R2351Q mPIEZO1 (Mus musculus, UniProt E2JF22, R2351Q); assay: Outside-out patch recording with pressure pulses; assay type: cell-based
T4 construct: expressed in transfected cells
Protocol: as §2

G1994D mPIEZO1 [5] = biological target: T2, G1994D mPIEZO1; assay: Long substance exposure (20 min exposure) Ca2+ assay; assay type: cell-based
Source text: Supplement mmc2.xlsx, sheet "Figure 5e" | column: Mean normalise fluorescence

[6] = design: method as in PMID 36457143, PMID 38716967, PMID 39402010; details: cited from earlier work
mice = details: cited from earlier work

T3 sequence (E2JF22 whole entry I2286T): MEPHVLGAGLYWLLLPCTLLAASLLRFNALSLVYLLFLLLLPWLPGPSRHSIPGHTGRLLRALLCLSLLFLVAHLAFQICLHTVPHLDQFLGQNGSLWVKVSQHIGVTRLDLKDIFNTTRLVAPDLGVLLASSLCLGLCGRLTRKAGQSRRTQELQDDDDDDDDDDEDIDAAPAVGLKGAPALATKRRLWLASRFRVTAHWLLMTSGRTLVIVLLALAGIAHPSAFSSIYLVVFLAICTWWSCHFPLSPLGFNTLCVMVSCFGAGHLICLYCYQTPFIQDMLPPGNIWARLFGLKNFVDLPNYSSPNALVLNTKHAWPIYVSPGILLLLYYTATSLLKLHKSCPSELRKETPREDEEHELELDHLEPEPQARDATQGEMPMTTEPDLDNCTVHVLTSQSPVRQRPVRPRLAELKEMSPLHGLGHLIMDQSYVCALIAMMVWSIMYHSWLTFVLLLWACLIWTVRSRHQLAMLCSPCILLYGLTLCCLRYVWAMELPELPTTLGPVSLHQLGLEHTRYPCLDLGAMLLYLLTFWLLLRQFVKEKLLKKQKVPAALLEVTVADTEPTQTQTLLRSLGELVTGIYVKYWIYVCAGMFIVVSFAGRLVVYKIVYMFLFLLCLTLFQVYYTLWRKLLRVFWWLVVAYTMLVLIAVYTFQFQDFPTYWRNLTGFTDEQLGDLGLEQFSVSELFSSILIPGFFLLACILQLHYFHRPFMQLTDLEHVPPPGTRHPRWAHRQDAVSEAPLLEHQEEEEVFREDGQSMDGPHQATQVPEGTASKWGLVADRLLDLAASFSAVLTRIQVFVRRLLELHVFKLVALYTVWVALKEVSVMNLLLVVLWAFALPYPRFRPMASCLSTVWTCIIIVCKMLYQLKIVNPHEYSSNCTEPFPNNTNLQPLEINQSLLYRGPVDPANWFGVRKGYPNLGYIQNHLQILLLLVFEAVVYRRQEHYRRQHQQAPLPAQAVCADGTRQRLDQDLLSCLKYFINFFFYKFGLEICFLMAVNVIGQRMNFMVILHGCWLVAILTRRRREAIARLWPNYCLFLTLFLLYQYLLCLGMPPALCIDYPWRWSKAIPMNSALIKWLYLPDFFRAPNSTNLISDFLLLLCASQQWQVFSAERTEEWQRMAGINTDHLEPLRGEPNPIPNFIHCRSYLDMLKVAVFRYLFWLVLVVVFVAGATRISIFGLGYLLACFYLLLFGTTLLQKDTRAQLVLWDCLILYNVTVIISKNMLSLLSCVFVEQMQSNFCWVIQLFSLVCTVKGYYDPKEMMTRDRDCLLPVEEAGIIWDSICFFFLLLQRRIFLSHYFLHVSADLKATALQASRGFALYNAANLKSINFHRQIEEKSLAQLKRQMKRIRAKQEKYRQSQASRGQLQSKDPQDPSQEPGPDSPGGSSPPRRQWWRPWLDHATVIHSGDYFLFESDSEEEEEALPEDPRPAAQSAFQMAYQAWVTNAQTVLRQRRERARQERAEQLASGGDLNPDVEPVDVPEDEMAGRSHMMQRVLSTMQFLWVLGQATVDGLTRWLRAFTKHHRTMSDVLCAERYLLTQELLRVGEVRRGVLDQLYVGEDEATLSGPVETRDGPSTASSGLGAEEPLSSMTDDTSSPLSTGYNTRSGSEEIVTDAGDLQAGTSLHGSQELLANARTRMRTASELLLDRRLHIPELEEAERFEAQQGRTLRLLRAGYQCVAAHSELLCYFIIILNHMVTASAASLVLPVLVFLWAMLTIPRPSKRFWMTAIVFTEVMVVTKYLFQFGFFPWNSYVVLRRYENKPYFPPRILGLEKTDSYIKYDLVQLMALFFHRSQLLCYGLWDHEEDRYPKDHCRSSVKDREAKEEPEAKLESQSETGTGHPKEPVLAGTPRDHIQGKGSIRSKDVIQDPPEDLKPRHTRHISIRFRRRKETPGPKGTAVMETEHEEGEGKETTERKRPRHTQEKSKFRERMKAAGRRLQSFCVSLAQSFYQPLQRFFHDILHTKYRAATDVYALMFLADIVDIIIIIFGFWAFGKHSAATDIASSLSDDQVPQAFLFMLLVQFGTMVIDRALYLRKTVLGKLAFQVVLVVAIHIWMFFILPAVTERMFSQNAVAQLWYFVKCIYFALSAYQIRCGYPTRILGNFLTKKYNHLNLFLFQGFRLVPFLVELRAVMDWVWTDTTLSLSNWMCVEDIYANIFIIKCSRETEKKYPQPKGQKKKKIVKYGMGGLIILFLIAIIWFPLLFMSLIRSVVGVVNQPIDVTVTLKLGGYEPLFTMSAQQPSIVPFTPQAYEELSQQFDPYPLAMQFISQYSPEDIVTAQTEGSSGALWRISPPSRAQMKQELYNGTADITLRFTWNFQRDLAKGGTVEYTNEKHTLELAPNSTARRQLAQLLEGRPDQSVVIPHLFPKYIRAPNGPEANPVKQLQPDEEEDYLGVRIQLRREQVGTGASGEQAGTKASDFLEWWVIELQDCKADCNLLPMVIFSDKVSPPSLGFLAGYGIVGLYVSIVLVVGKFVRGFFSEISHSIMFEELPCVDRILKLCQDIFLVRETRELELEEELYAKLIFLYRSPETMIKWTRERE
T4 sequence (E2JF22 whole entry R2351Q): as the sequence (E2JF22 whole entry I2286T) above, with T2286I, R2351Q counted along it
T2 sequence (E2JF22 whole entry G1994D): as the sequence (E2JF22 whole entry I2286T) above, with G1994D, T2286I counted along it
T1 sequence (E2JF22 whole entry): as the sequence (E2JF22 whole entry I2286T) above, with T2286I counted along it

O=C(O)c1ccc(-c2cnc(SCc3c(Cl)cccc3Cl)s2)cc1 [Yoda2b, 4-(2-([(2,6-Dichlorophenyl)methyl]sulfanyl)-1,3-thiazol-5-yl)benzoic acid]
more effective than Yoda1 under the hypotonic condition (WT mPIEZO1): about 25%
solubility kinetic [1]: 6.1 µM (≈ 2.42 µg/mL)
half-life [2]: 7.2 min
unbound to mouse plasma proteins [3]: 0.4%

Clc1cccc(Cl)c1CSc1nnc(-c2cnccn2)s1 [Yoda1]
Currents at given pressure (G1994D mPIEZO1 [4]; 0 mmHg, time 200.1 ms): -1.831 pA
Currents at given pressure (G1994D mPIEZO1 [4]; 0 mmHg, time 200.15 ms): 0.2743 pA
Currents at given pressure (G1994D mPIEZO1 [4]; 0 mmHg, time 200.2 ms): -1.526 pA
Currents at given pressure (G1994D mPIEZO1 [4]; 15 mmHg, time 200.1 ms): 1.03 pA
Currents at given pressure (G1994D mPIEZO1 [4]; 15 mmHg, time 200.15 ms): -0.5571 pA
Currents at given pressure (G1994D mPIEZO1 [4]; 15 mmHg, time 200.2 ms): -0.1298 pA
Currents at given pressure (G1994D mPIEZO1 [4]; 30 mmHg, time 200.1 ms): -11.9666 pA
Currents at given pressure (G1994D mPIEZO1 [4]; 30 mmHg, time 200.15 ms): -9.769 pA
Currents at given pressure (G1994D mPIEZO1 [4]; 30 mmHg, time 200.2 ms): -5.161 pA
Currents at given pressure (G1994D mPIEZO1 [4]; 45 mmHg, time 200.1 ms): -2.0839 pA
Currents at given pressure (G1994D mPIEZO1 [4]; 45 mmHg, time 200.15 ms): -0.6801 pA
Currents at given pressure (G1994D mPIEZO1 [4]; 45 mmHg, time 200.2 ms): -0.497 pA
Currents at given pressure (G1994D mPIEZO1 [4]; 60 mmHg, time 200.1 ms): 1.1543 pA
Currents at given pressure (G1994D mPIEZO1 [4]; 60 mmHg, time 200.15 ms): -0.9209 pA
Currents at given pressure (G1994D mPIEZO1 [4]; 60 mmHg, time 200.2 ms): -0.8599 pA
Currents at given pressure (G1994D mPIEZO1 [4]; 75 mmHg, time 200.1 ms): -0.6364 pA
Currents at given pressure (G1994D mPIEZO1 [4]; 75 mmHg, time 200.15 ms): 0.6148 pA
Currents at given pressure (G1994D mPIEZO1 [4]; 75 mmHg, time 200.2 ms): 0.06549 pA
Currents at given pressure (G1994D mPIEZO1 [4]; 90 mmHg, time 200.1 ms): -1.92 pA
Currents at given pressure (G1994D mPIEZO1 [4]; 90 mmHg, time 200.15 ms): -2.409 pA
Currents at given pressure (G1994D mPIEZO1 [4]; 90 mmHg, time 200.2 ms): -0.1504 pA
Currents at given pressure (G1994D mPIEZO1 [4]; 105 mmHg, time 200.1 ms): -0.4419 pA
Currents at given pressure (G1994D mPIEZO1 [4]; 105 mmHg, time 200.15 ms): -1.449 pA
Currents at given pressure (G1994D mPIEZO1 [4]; 105 mmHg, time 200.2 ms): 0.2905 pA
Pressure-response, individual cells (Figure 5f) (G1994D mPIEZO1 [4]; pressure 0 mmHg): 1.59E-17 and -8.38E-17 and 0 (4×) and -2.96E-17 and -2.69E-17 and -3.91E-17 and 3.74E-17
Mean (pressure-response, Figure 5f) (G1994D mPIEZO1 [4]; pressure 0 mmHg): -1.26E-17
Pressure-response, individual cells (Figure 5f) (G1994D mPIEZO1 [4]; pressure 15 mmHg): 0.08197 and 0.01125 and 0.01265 and 0.01555 and 0.01655 and 0.00717 and 0.01084 and 0.05939 and 0.00309 and 0.1064
Mean (pressure-response, Figure 5f) (G1994D mPIEZO1 [4]; pressure 15 mmHg): 0.03249
Pressure-response, individual cells (Figure 5f) (G1994D mPIEZO1 [4]; pressure 30 mmHg): 0.03806 and -0.00981 and 0.03807 and 0.05062 and 0.03544 and 0.00903 and 0.00593 and 0.02358 and 0.08822 and 0.1193
Mean (pressure-response, Figure 5f) (G1994D mPIEZO1 [4]; pressure 30 mmHg): 0.03984
pressure for 50% activation (P50), Boltzmann mid-point (G1994D mPIEZO1 [4]; in 5 μM Yoda1, -80 mV): 64.0 mmHg
mechanical activation in the presence of the compound (I2286T mPIEZO1; 75 mmHg pressure pulses): pressure-evoked current now occurred
current (example trace) (I2286T mPIEZO1; time 30.5 ms): -0.41 pA
current (example trace) (I2286T mPIEZO1; time 30.5002 ms): -0.2269 pA
current (example trace) (I2286T mPIEZO1; time 30.5004 ms): -0.5932 pA
maximum amplitude of current evoked by the pressure pulse, Mean (I2286T mPIEZO1; 75 mmHg, -80 mV, n = 7): -80.8694 pA
mechanical activation in the presence of the compound (R2351Q mPIEZO1; 5 μM, 75 mmHg pressure pulses): robust mechanical activation of the variant channels
currents at given condition, individual cells (cell1-cell7) (R2351Q mPIEZO1; R2351Q, Yoda1, Figure 4e): -87.925 pA and -24.5178 pA and -36.1129 pA and -20.7822 pA and -20.109 pA and -65.4339 pA and -114.364 pA
currents at given condition, Mean (R2351Q mPIEZO1; R2351Q, Yoda1, mean of 7 cells, Figure 4e): -52.7493 pA
Mean normalise fluorescence (Figure 5e) (G1994D mPIEZO1 [5]; Yoda1 concentration 0.03 µM): 0.2099
Mean normalise fluorescence (Figure 5e) (G1994D mPIEZO1 [5]; Yoda1 concentration 0.1 µM): 0.1039
Mean normalise fluorescence (Figure 5e) (G1994D mPIEZO1 [5]; Yoda1 concentration 0.3 µM): 0.5452
Mean normalise fluorescence (Figure 5e) (G1994D mPIEZO1 [5]; Yoda1 concentration 1 µM): 1.026
Mean normalise fluorescence (Figure 5e) (G1994D mPIEZO1 [5]; Yoda1 concentration 3 µM): 1
Mean normalise fluorescence (Figure 5e) (G1994D mPIEZO1 [5]; Yoda1 concentration 10 µM): 1.103
aqueous solubility limit [6]: ~2 µM (≈ 0.711 µg/mL)
lymphatic valve formation (mice; WT mice): accelerated lymphatic valve formation
adverse effects of injection (mice; mice injected): mostly not been adversely affected
effect on edemas (mice; mice): reduce peripheral and central edemas
meningeal lymphatic network function (mice; mice): restored meningeal lymphatic network function
postsurgical lymphedema (mice; mice): suppressed postsurgical lymphedema
cerebrospinal fluid accumulation and ventricular enlargement (mice; mouse models of Down syndrome): decreased pathological cerebrospinal fluid accumulation and ventricular enlargement

Source: publication PMC12337661, “PIEZO1 mechanical insensitivity in generalized lymphatic dysplasia with the potential for pharmacological rescue” (iScience, 2025)
